From PubChem BioAssay AID1996
In brackets after ≈: the same amount, converted by molar mass.

conditions: buffer; pH 7.4; 200.0 µM

solubility kinetic [µg/mL] | SMILES
2.4 (≈ 7.73 µM) | Cc1ccc(OCC(=O)Nc2ccc3c(c2)C(=O)NC3=O)cc1
0.9 (≈ 2.79 µM) | CCOc1ccc2[nH]cc(C(=O)NCc3ccccc3)c(=O)c2c1
23.2 (≈ 47 µM) | CSc1cccc(N2CC(C(=O)N3CCN(S(=O)(=O)c4ccccc4Cl)CC3)CC2=O)c1 (centres undefined)
> 41.3 | CCN1CCN(CCC(=O)Nc2ccccc2C)CC1
0.5 (≈ 1.66 µM) | COc1ccccc1NC(=S)NC(=O)Cc1ccccc1
7.5 (≈ 19.6 µM) | CCOc1ccccc1N1CCN(C(=O)c2ccc3nc(N)sc3c2)CC1
> 33.9 | CC(=O)Nc1ccc(Nc2ccccc2)cc1
20.5 (≈ 63 µM) | COc1cccc(CNC(=O)N2CCN(c3ccccc3)CC2)c1
> 53.6 | O=C(CN1CCOCC1)Nc1ccc(NC(=O)c2ccccc2F)cc1
1.1 (≈ 3.07 µM) | CC(=O)Nc1ccc(NC(=O)C2c3ccccc3Oc3ccccc32)cc1
7.1 (≈ 23 µM) | O=C(NCCc1ccccc1)c1ccc(-c2ccc(F)cc2)o1
2.1 (≈ 6.56 µM) | O=C(O/N=C(/c1ccccc1)c1ccncc1)c1cccc(F)c1
6.1 (≈ 12.8 µM) | COc1ccc(CN(C)C(C)C(=O)Nc2ccc(S(=O)(=O)N3CCCCC3)cc2)c(OC)c1 (centres undefined)
10.1 (≈ 37.5 µM) | CC(C)c1ccc(NC(=O)COc2ccccc2)cc1
22.7 (≈ 70 µM) | Cn1cc(CCCC(=O)NCc2ccc(F)cc2)c2ccccc21
0.9 (≈ 3 µM) | O=C(Nc1ccc([N+](=O)[O-])cc1)C1COc2ccccc2O1 (centres undefined)
4 (≈ 11.6 µM) | COc1ccccc1N1CCN(C(=S)Nc2ccc(F)cc2)CC1
> 46 | COC(=O)c1ccc(NC(=O)C[n+]2ccccc2)cc1.[Cl-]
29.9 (≈ 82.5 µM) | O=C(Nc1ccc(CN2CCS(=O)(=O)CC2)cc1)c1ccc(F)cc1

Further lines, the compound ahead of its results:

SMILES | solubility kinetic [µg/mL]
O=C(COC(=O)/C=C/c1ccc(Cl)cc1)NC1CC1 | 7.1 (≈ 25.4 µM)
COc1cc(CCC(=O)OCC(=O)NCCc2ccc(S(N)(=O)=O)cc2)cc(OC)c1OC | > 72.1
Cc1ccc(C)c(NC(=O)CC2Oc3ccccc3NC2=O)c1 (centres undefined) | 1.1 (≈ 3.54 µM)
Cc1ccc2[nH]c(C(=O)N3CCOCC3)cc2c1 | > 36.6
Cc1ccc2c(c1)C1(C)C(C(C)(C)N2C=O)C1(Cl)Cl (centres undefined) | 39.3 (≈ 132 µM)
Cc1noc(C)c1-c1nc(CSc2ccccc2)no1 | 0.8 (≈ 2.78 µM)
CC(OC(=O)C1CC1)C(=O)Nc1cccc(S(=O)(=O)N2CCOCC2)c1 (centres undefined) | > 57.4
COc1cc(CN2CC=C(c3ccc(F)cc3)CC2)cc(OC)c1 | 10.4 (≈ 31.8 µM)
O=c1c2c3c(sc2nc(NCCO)n1-c1ccccc1)CCCC3 | 6.8 (≈ 19.9 µM)
CCc1nc2cccnc2n1-c1ccc(CC(=O)NC(C)CC)cc1 (centres undefined) | > 50.5
CC(=O)N(CN1C(=O)CCC1=O)c1ccc(Cl)c(Cl)c1 | > 47.3
CCCCS(=O)(=O)N1CCC(C(=O)NCC2CCCO2)CC1 (centres undefined) | 46 (≈ 138 µM)
CC(=O)NCCNS(=O)(=O)c1ccc(C)c([N+](=O)[O-])c1 | > 45.2
Cn1c(CNC(=O)OC(C)(C)C)n[nH]c1=S | > 36.6
CC(Sc1nncn1C)C(=O)Nc1ccc(S(N)(=O)=O)cc1 (centres undefined) | > 51.2
Cc1ccc(C(=O)OCC(=O)NCCC2=CCCCC2)cc1N | 21 (≈ 66.4 µM)
CC(C)Sc1nc2c([nH]1)c(=N)ncn2Cc1ccccc1 | > 44.9
O=C(CCl)N(CCCNC(=O)C(F)(F)F)c1ccc([N+](=O)[O-])cc1 | > 55.2
CC(C)[N+]1=C2C=CC=CC=C2SC12C([N+](=O)[O-])=CC(=[N+]([O-])[O-])C=C2[N+](=O)[O-] (centres undefined) | 1.3 (≈ 3.33 µM)
Cc1nn2c(-c3ccncc3)ccnc2c1Cl | > 36.7

SMILES | solubility kinetic [µg/mL]
Cc1ccccc1/C=C/c1nc2ccccc2c(=O)[nH]1 | 0.4 (≈ 1.52 µM)
CN(Cc1ccccc1)C(=O)c1ccccc1C(=O)OCC(=O)N(Cc1ccccc1)C(C)(C)C | 25.7 (≈ 54.4 µM)
O=C(NCC1CCCCC1)c1cccnc1 | 31.1 (≈ 142 µM)
Cc1c(C(=O)O)sc2nc(/C=C/c3cccc(O)c3)[nH]c(=O)c12 | 35.5 (≈ 108 µM)
N#CC1(NC(=O)COc2ccc(C(N)=O)cc2)CCCC1 | > 43.1
Cl.OC(CNC1CCCC1)COc1ccc(Cl)cc1 (centres undefined) | > 45.9
O=C(CNC(=O)c1ccccc1F)OCc1nc2ccccc2s1 | 48.6 (≈ 141 µM)
O=C(Nc1cccc(Cl)c1)c1cc(F)cc2c1OCOC2 | < 0.7
COc1ccc(NC(=O)CC2CC3CCC2C3)cn1 (centres undefined) | 29.9 (≈ 115 µM)
CC(NC(=S)Nc1ccccc1C(F)(F)F)C1CC2CCC1C2 (centres undefined) | 2.1 (≈ 6.13 µM)
COc1cccc(CNC(=O)CCCNC(=O)c2ccc(Cl)cc2)c1 | 37.8 (≈ 105 µM)
O=C(COC(=O)CC1CC2CCC1C2)NCc1ccc(F)cc1 (centres undefined) | 46.1 (≈ 144 µM)
CCc1ccc(NC(=O)NC2CCCCCCC2)cc1 | < 0.3
O=S(=O)(c1ccc(Cl)cc1)N1CCC(n2cccc2)CC1 | 0.6 (≈ 1.85 µM)
CC(C)(C)NC(=O)COC(=O)c1cc(Cl)ccc1[N+](=O)[O-] | > 47.2
CC(Sc1nncn1C)C(=O)NCCC1=CCCCC1 (centres undefined) | > 44.2
CCN(C(=O)c1ccco1)c1nc(-c2ccc(OC)cc2)cs1 | < 0.4
O=C(NCc1ccccn1)C(=O)NCC(c1ccco1)N1CCOCC1 (centres undefined) | > 53.8
CCOC(=O)/C(C#N)=C1/C=C(C)c2ccccc2N1 | 0.4 (≈ 1.57 µM)
Cc1c(C(=O)OCC(=O)NC(C)c2ccccc2)oc2ccccc12 (centres undefined) | 4.4 (≈ 13 µM)
